In ChEMBL document CHEMBL2440100, “Therapeutic potential of the peptide leucine arginine as a new nonplant bowman-birk-like serine protease inhibitor” (J Med Chem, 2013):
Active and inactive are the calls of the source. No cut-off for these calls is given here. Where a SMILES comes first, the peptide text is derived from it. Bridges are numbered along the chain shown (N, C = ends).

Tests used:
Mus musculus [1] = species on record: Mus musculus; assay: Antiasthmatic activity in OVA-immunized BALB/c mouse acute asthma model assessed as reduction of mucus production in PAS-stained lung section at 100 nM treated intranasally on days 15, 16, 22, and 23 at 30 mins before OVA challenge; assay type: functional, organism-based
Mus musculus [2] = species on record: Mus musculus; assay: Antiasthmatic activity in OVA-immunized BALB/c mouse chronic asthma model assessed as inhibition of airway remodeling at 100 nM treated intranasally on days 15, 16, 22, and 23 at 30 mins before OVA challenge measured on day 71; assay type: functional, organism-based
Splenocyte [3] = assay: Antiasthmatic activity in splenocytes isolated from 25 days OVA-immunized BALB/c mouse acute asthma model assessed as reduction of IFN-gamma production at 100 nM measured after 3 days re-stimulation by ELISA; assay type: functional, cell-based
Mus musculus [4] = species on record: Mus musculus; assay: Antiasthmatic activity in OVA-immunized BALB/c mouse chronic asthma model assessed as inhibition of airway inflammation at 100 nM treated intranasally on days 15, 16, 22, and 23 at 30 mins before OVA challenge measured on day 71; assay type: functional, organism-based
Mus musculus [5] = species on record: Mus musculus; assay: Antiasthmatic activity in OVA-immunized BALB/c mouse acute asthma model assessed as reduction of IgE level in serum at 100 nM treated intranasally on days 15, 16, 22, and 23 at 30 mins before OVA challenge; assay type: functional, organism-based
Mus musculus [6] = species on record: Mus musculus; assay: Antiasthmatic activity in OVA-immunized BALB/c mouse chronic asthma model assessed as reduction of IgE level in serum at 100 nM treated intranasally on days 15, 16, 22, and 23 at 30 mins before OVA challenge measured on day 71; assay type: functional, organism-based
Splenocyte [7] = assay: Antiasthmatic activity in splenocytes isolated from 25 days OVA-immunized BALB/c mouse acute asthma model assessed as reduction of IL-13 and IL-5 production at 100 nM measured after 3 days re-stimulation by ELISA; assay type: functional, cell-based
Mus musculus [8] = species on record: Mus musculus; assay: Antiasthmatic activity in OVA-immunized BALB/c mouse chronic asthma model assessed as reduction of decrease in smooth muscle area at 100 nM treated intranasally on days 15, 16, 22, and 23 at 30 mins before OVA challenge measured on day 71 by alpha-SMA-staining; assay type: functional, organism-based; conditions: Muscle tissue
Mus musculus [9] = species on record: Mus musculus; assay: Antiasthmatic activity in lymphnode cells isolated from 25 days OVA-immunized BALB/c mouse acute asthma model assessed as reduction of IFN-gamma production at 100 nM measured after 3 days re-stimulation by ELISA; assay type: functional, cell-based
Mus musculus [10] = species on record: Mus musculus; assay: Antiasthmatic activity in OVA-immunized BALB/c mouse chronic asthma model assessed as decrease in number of eosinophils in BAL fluid at 100 nM treated intranasally on days 15, 16, 22, and 23 at 30 mins before OVA challenge measured on day 71; assay type: functional, organism-based
Mus musculus [11] = species on record: Mus musculus; assay: Antiasthmatic activity in OVA-immunized BALB/c mouse chronic asthma model assessed as reduction of methacholine-induced airway hyperreactivity at 100 nM treated intranasally on days 15, 16, 22, and 23 at 30 mins before OVA challenge measured on day 71; assay type: functional, organism-based
[12] = Inhibition of bovine trypsin using benzoyl-L-arginine p-nitroanilide as substrate after 5 to 60 mins; design: species or system Bos taurus
Mus musculus [13] = species on record: Mus musculus; assay: Antiasthmatic activity in OVA-immunized BALB/c mouse acute asthma model assessed as reduction of methacholine-induced lung resistance at 100 nM treated intranasally on days 15, 16, 22, and 23 at 30 mins before OVA challenge; assay type: functional, organism-based
Mus musculus [14] = species on record: Mus musculus; assay: Antiasthmatic activity in OVA-immunized BALB/c mouse chronic asthma model assessed as plasma histamine release at 10 uM treated intranasally after 5 mins by immunoassay; assay type: functional, organism-based
Mus musculus [15] = species on record: Mus musculus; assay: Antiasthmatic activity in OVA-immunized BALB/c mouse chronic asthma model assessed as inhibition of tryptase-like protease activity in BAL fluid using tosyl-gly […]-lys-pNA as substrate after 1 hr; assay type: functional, organism-based
Mus musculus [16] = species on record: Mus musculus; assay: Antiasthmatic activity in OVA-immunized BALB/c mouse acute asthma model assessed as reduction of methacholine-induced airway hyperreactivity at 100 nM treated intranasally on days 15, 16, 22, and 23 at 30 mins before OVA challenge; assay type: functional, organism-based
Mus musculus [17] = species on record: Mus musculus; assay: Antiasthmatic activity in OVA-immunized BALB/c mouse chronic asthma model assessed as inhibition of tryptase-like protease activity in BAL fluid using tosyl-gly […]-lys-pNA as substrate at 100 nM after 1 hr relative to control; assay type: functional
Mus musculus [18] = species on record: Mus musculus; assay: Antiasthmatic activity in OVA-immunized BALB/c mouse chronic asthma model assessed as reduction of area of proliferating smooth muscle cell at 100 nM treated intranasally on days 15, 16, 22, and 23 at 30 mins before OVA challenge measured on day 71 by PCNA+-staining; assay type: functional, organism-based
Mus musculus [19] = species on record: Mus musculus; assay: Antiasthmatic activity in OVA-immunized BALB/c mouse chronic asthma model assessed as reduction of airway inflammation at 100 nM treated intranasally on days 15, 16, 22, and 23 at 30 mins before OVA challenge by hematoxylin and eosin staining measured on day 71; assay type: functional, organism-based
Mus musculus [20] = species on record: Mus musculus; assay: Antiasthmatic activity in OVA-immunized BALB/c mouse chronic asthma model assessed as reduction of mMCP-1 level in serum at 100 nM treated intranasally at 30 mins before OVA challenge measured after 30 mins by ELISA; assay type: functional, organism-based
Mus musculus [21] = species on record: Mus musculus; assay: Antiasthmatic activity in OVA-immunized BALB/c mouse chronic asthma model assessed as reduction of 8-isoprostane level in serum at 10 uM treated intranasally by immunoassay; assay type: functional, organism-based
Mus musculus [22] = species on record: Mus musculus; assay: Antiasthmatic activity in OVA-immunized BALB/c mouse acute asthma model assessed as reduction of IgG2a level in serum at 100 nM treated intranasally on days 15, 16, 22, and 23 at 30 mins before OVA challenge; assay type: functional, organism-based
Mus musculus [23] = species on record: Mus musculus; assay: Antiasthmatic activity in OVA-immunized BALB/c mouse acute asthma model assessed as decrease in number of eosinophils in BAL fluid at 100 nM treated intranasally on days 15, 16, 22, and 23 at 30 mins before OVA challenge; assay type: functional, organism-based
Mus musculus [24] = species on record: Mus musculus; assay: Antiasthmatic activity in OVA-immunized BALB/c mouse chronic asthma model assessed as reduction of collagen and old fibrin at 100 nM treated intranasally on days 15, 16, 22, and 23 at 30 mins before OVA challenge measured on day 71 by martius scarlet blue-staining; assay type: functional, organism-based
Mus musculus [25] = species on record: Mus musculus; assay: Antiasthmatic activity in lymphnode cells isolated from 25 days OVA-immunized BALB/c mouse acute asthma model assessed as reduction of IL-13 and IL-5 production at 100 nM measured after 3 days re-stimulation by ELISA; assay type: functional, cell-based
Mus musculus [26] = species on record: Mus musculus; assay: Antiasthmatic activity in OVA-immunized BALB/c mouse chronic asthma model assessed as reduction of total lung collagen level at 100 nM treated intranasally on days 15, 16, 22, and 23 at 30 mins before OVA challenge measured on day 71 by MSB-staining; assay type: functional, organism-based
Mus musculus [27] = species on record: Mus musculus; assay: Antiasthmatic activity in OVA-immunized BALB/c mouse acute asthma model assessed as reduction of airway inflammation at 100 nM treated intranasally on days 15, 16, 22, and 23 at 30 mins before OVA challenge by hematoxylin and eosin staining; assay type: functional, organism-based
Mus musculus [28] = species on record: Mus musculus; assay: Antiasthmatic activity in OVA-immunized BALB/c mouse chronic asthma model assessed as plasma histamine release at 0.1 uM treated intranasally after 5 mins by immunoassay; assay type: functional, organism-based

## CC(C)C[C@H](N)C(=O)N[C@H](C(=O)N[C@@H](CCCNC(=N)N)C(=O)NCC(=O)N[C@H]1CSSC[C@@H](C(=O)N[C@@H](Cc2ccccc2)C(=O)N[C@H](C(=O)N[C@@H](CCCNC(=N)N)C(=O)O)C(C)C)NC(=O)[C@@H]2CCCN2C(=O)[C@H](CCCCN)NC(=O)[C@@H]2CCCN2C(=O)[C@@H]2CCCN2C(=O)[C@H](Cc2ccc(O)cc2)NC(=O)[C@H](CO)NC(=O)[C@H](CCCCN)NC(=O)[C@H]([C@@H](C)O)NC(=O)[C@H](Cc2c[nH]c3ccccc23)NC1=O)C(C)C (H-LVRGCWTKSYPPKPCFVR-OH; disulfide 5-15)
Mus musculus [1]
  Activity: Active
Mus musculus [2]
  Activity: Active
Splenocyte [3]
  Activity: Active
Mus musculus [4]
  Activity: Active
Mus musculus [5]
  Activity: Active
Mus musculus [6]
  Activity: Active
Splenocyte [7]
  Activity: Active
Mus musculus [8]
  Activity: Active
Mus musculus [9]
  Activity: inactive
Mus musculus [10]
  Activity: Active
Mus musculus [11]
  Activity: Active
[12]
  Ki: 110 nM
Mus musculus [13]
  Activity: Active
Mus musculus [14]
  Activity: Active
Mus musculus [15]
  inhibition: Dose-dependent effect
Mus musculus [16]
  Activity: Active
Mus musculus [17]
  inhibition (INH): 60%
Mus musculus [18]
  Activity: Active
Mus musculus [19]
  Activity: Active
Mus musculus [20]
  Activity: Active
Mus musculus [21]
  Activity: Active
Mus musculus [22]
  Activity: inactive
Mus musculus [23]
  Activity: Active
Mus musculus [24]
  Activity: Active
Mus musculus [25]
  Activity: Active
Mus musculus [26]
  Activity: Active
Mus musculus [27]
  Activity: Active
Mus musculus [28]
  Activity: inactive

## CC[C@H](C)[C@@H]1NC(=O)[C@@H]2CCCN2C(=O)[C@@H]2CCCN2C(=O)[C@H]([C@@H](C)CC)NC(=O)[C@H](CO)NC(=O)[C@H](CCCCN)NC(=O)[C@H]([C@@H](C)O)NC(=O)[C@@H]2CSSC[C@H](NC1=O)C(=O)N[C@@H](Cc1ccccc1)C(=O)N1CCC[C@H]1C(=O)N[C@@H](CC(=O)O)C(=O)NCC(=O)N[C@@H](CCCNC(=N)N)C(=O)N2
Mus musculus [1]
  Activity: Active
Mus musculus [2]
  Activity: Active
Mus musculus [4]
  Activity: Active
Mus musculus [5]
  Activity: Active
Mus musculus [6]
  Activity: Active
Splenocyte [7]
  Activity: Active
Mus musculus [8]
  Activity: Active
Mus musculus [10]
  Activity: Active
Mus musculus [11]
  Activity: Active
[12]
  Ki: 8 nM
Mus musculus [13]
  Activity: Active
Mus musculus [15]
  inhibition: Dose-dependent effect
Mus musculus [16]
  Activity: Active
Mus musculus [17]
  inhibition (INH): 60%
Mus musculus [18]
  Activity: Active
Mus musculus [19]
  Activity: Active
Mus musculus [20]
  Activity: Active
Mus musculus [21]
  Activity: inactive
Mus musculus [22]
  Activity: inactive
Mus musculus [23]
  Activity: Active
Mus musculus [24]
  Activity: Active
Mus musculus [25]
  Activity: Active
Mus musculus [26]
  Activity: Active
Mus musculus [27]
  Activity: Active
Mus musculus [28]
  Activity: inactive
